From patent US7799565B2, “Lipid encapsulated interfering RNA” (Protiva Biotherapeutics, Inc., priority 2004, dated 2010)

Experiments:
[1] = tested on: luciferase; test: In vitro silencing of luciferase in stably transfected Neuro2A cells; type: cell-based; conditions: 48 hours; for luciferase expression relative to untreated control: cationic lipid incorporated in SNALP with anti-luciferase siRNA
Procedure: In vitro Transfection: Cells were cultured in MEM (Invitrogen) containing 10% fetal bovine serum (FBS) (CanSera) and 0.25 mg/mL G418 (Invitrogen). Neuro2A-G cells (Neuro2A cells stably transfected to express luciferase [R. E. Kingston. in Current Protocols in Molecular Biology, Vol. 2, pp. 9.1.4-9.1.9, John Wiley & Sons, Inc. (1997)]) were plated at a concentration of 4×10^4 cells per well in 24-well plates and grown overnight. Cells were treated with SNALP at doses of 0.0625-1.0 μg/mL nucleic acid (AntiLuc Active or Mismatch Control) and incubated for 48 hours at 37° C. and 5% CO2. Cells were then washed with PBS and lysed with 200 μL 250 mM sodium phosphate containing 0.1% Triton X-100. The luciferase activity for each well was determined using Luciferase Reagent (Promega) and a standard luciferase protein (Roche). The luminescence for each was measured using a Berthold MicroLumatPlus LB96V plate luminometer. The resulting luciferase activity was then normalized for the amount of protein using the Micro BCA assay kit (Pierce). Luciferase knockdown relative to a control was then determined for each system.
This example describes experiments comparing expression of nucleic acids following in vitro transfection of Neuro2A cells with SNALP comprising: (1) DODAC, DODMA, or DLinDMA; (2) PEG-C-DMA; and (3) an siRNA duplex directed against luciferase encapsulated in the SNALP (i.e., siRNA comprising the following sequence: […] and targeting the DNA sequence complementary to: […]). Neuro2A cells were stably transfected with a plasmid encoding luciferase under the control of the CMV promoter (pLO55). The stably transfected cells were then transfected with SNALP comprising: 15, 20, 25, 30, 35, or 40% of DODAC, DODMA, or DLinDMA; 2% PEG-C-DMA, and an siRNA duplex directed against luciferase encapsulated in the SNALP. Luciferase protein expression was measured 48 hours after transfection with SNALP.
The ability of SNALP containing each of the four cationic lipids (i.e., DSDMA, DODMA, DLinDMA, and DLenDMA) to effect gene silencing in stably transfected Neuro2A cells was evaluated. Neuro2A cells stably transfected to express the luciferase were treated with SNALP containing anti-luciferase siRNA for 48 hours. Gene-silencing efficiency was evaluated by comparing the remaining luciferase activity in these cells to that remaining in cells treated with control SNALP containing mismatch siRNA.

[2] = 31P-NMR phase transition of cationic lipid / DPPS vesicles; type: physicochemical; conditions: series DSDMA, DODMA, DLinDMA, DLenDMA
Procedure: ^31P Nuclear Magnetic Resonance Spectroscopy: Multilamellar vesicles (MLV) were prepared comprising DPPS and cationic lipid at a molar ratio of 1:1. This was accomplished by drying the lipids from chloroform solution, transferring to 10 mm NMR tubes, and hydrating in 1.5 mL of 10 mM sodium citrate, pH 4. Free induction decays (FIDs) corresponding to 1000 scans were obtained with a 3.0 μs, 60 o pulse with a 1 s interpulse delay and a spectral width of 25000 Hz. A gated two-level proton decoupling was used to ensure sufficient decoupling with minimum sample heating. An exponential multiplication corresponding to 50 Hz of line broadening was applied to the FIDs prior to Fourier transformation. The sample temperature (+/−1° C.) was regulated using a Bruker B-VT1000 variable temperature unit. Chemical shifts were referenced to 85% phosphoric acid as an external standard.

[3] = SNALP with anti-luciferase siRNA, versus control SNALP containing mismatch siRNA

Row | Structure (SMILES) | gene-silencing activity [1, 3] | luciferase expression relative to untreated control [1] [%] | phase transition temperature [2] | knockdown in gene expression [1, 3] [%]
1 | CC/C=C\C/C=C\C/C=C\CCCCCCCCOCC(CN(C)C)OCCCCCCCC/C=C\C/C=C\C/C=C\CC (stereo not shown) [DLenDMA, 1,2-Dilinolenyloxy-N,N-dimethylaminopropane] | slightly less efficient than those containing DLinDMA | 32 |  | 
2 | CCCCC/C=C\C/C=C\CCCCCCCCOCC(CN(C)C)OCCCCCCCC/C=C\C/C=C\CCCCC (stereo not shown) [DLinDMA, 1,2-DiLinoleyloxy-N,N-dimethylaminopropane] |  | 21 | lowest phase transition temperature in the series | 80
3 | CCCCCCCCCCCCCCCCCC[N+](C)(C)CCCCCCCCCCCCCCCCCC [DODMA, dioctadecyldimethylammonium, reference compound] |  | 54 |  | 
4 | CCCCCCCCCCCCCCCCCC[N+](C)(C)CCCCCCCCCCCCCCCCCC [DSDMA, Distearyldimethylammonium, reference compound] | no activity |  |  | 
